Assay results: the NIST ThermoML archive (doi:10.1021/acs.jced.8b01095)

Assay: xn = mol fraction of the nth substance listed
Details: Liquid; for viscosity: 2 kPa, Falling or rolling sphere viscometry; for speed of sound / mass density: 100 kPa; for speed of sound: Single path-length method; for mass density: Vibrating tube method

CNc1ccccc1 [N-methylaniline] + CCCCn1cc[n+](C)c1.F[P-](F)(F)(F)(F)F
Details | mass density [kg/m3] | speed of sound [m/s] | viscosity [mPa·s]
298.15 K, x2 = 0 | 982.7 | 1564.5 | 1.94
298.15 K, x2 = 0.1076 | 1064.1 | 1558.7 | 5.42
298.15 K, x2 = 0.2146 | 1128.52 | 1549.8 | 11.47
298.15 K, x2 = 0.3053 | 1174.31 | 1538.2 | 22.49
298.15 K, x2 = 0.3985 | 1214.23 | 1516.1 | 37.19
298.15 K, x2 = 0.4805 | 1243.22 | 1497.1 | 53.52
298.15 K, x2 = 0.5766 | 1272.38 | 1481.9 | 71.45
298.15 K, x2 = 0.6793 | 1299.48 | 1468.8 | 95.21
298.15 K, x2 = 0.7871 | 1325.04 | 1457.9 | 126.78
298.15 K, x2 = 0.9009 | 1348.44 | 1447.2 | 187.23
303.15 K, x2 = 0 | 978.59 | 1546.1 | 1.73
303.15 K, x2 = 0.1076 | 1060.11 | 1542.2 | 4.31
303.15 K, x2 = 0.2146 | 1124.54 | 1534.3 | 9.24
303.15 K, x2 = 0.3053 | 1170.33 | 1523.4 | 16.65
303.15 K, x2 = 0.3985 | 1210.27 | 1502.3 | 27.2
303.15 K, x2 = 0.4805 | 1239.24 | 1484.1 | 39.53
303.15 K, x2 = 0.5766 | 1268.37 | 1469.4 | 53.54
303.15 K, x2 = 0.6793 | 1295.43 | 1456.7 | 74.21
303.15 K, x2 = 0.7871 | 1320.94 | 1445.9 | 96.09
303.15 K, x2 = 0.9009 | 1344.33 | 1435.4 | 140.54
308.15 K, x2 = 0 | 974.47 | 1528.3 | 1.55
308.15 K, x2 = 0.1076 | 1056.11 | 1525.9 | 3.52
308.15 K, x2 = 0.2146 | 1120.57 | 1518.9 | 7.54
308.15 K, x2 = 0.3053 | 1166.34 | 1508.8 | 12.57
308.15 K, x2 = 0.3985 | 1206.32 | 1488.9 | 20.33
308.15 K, x2 = 0.4805 | 1235.26 | 1471.1 | 29.79
308.15 K, x2 = 0.5766 | 1264.35 | 1456.7 | 40.88
308.15 K, x2 = 0.6793 | 1291.38 | 1444.4 | 53.97
308.15 K, x2 = 0.7871 | 1316.84 | 1433.9 | 72.45
308.15 K, x2 = 0.9009 | 1340.21 | 1423.5 | 107.54
313.15 K, x2 = 0 | 970.36 | 1511.5 | 1.4
313.15 K, x2 = 0.1076 | 1052.12 | 1506.7 | 2.95
313.15 K, x2 = 0.2146 | 1116.59 | 1500.8 | 6.01
313.15 K, x2 = 0.3053 | 1162.35 | 1492.6 | 9.66
313.15 K, x2 = 0.3985 | 1202.36 | 1475.5 | 15.49
313.15 K, x2 = 0.4805 | 1231.27 | 1458 | 22.87
313.15 K, x2 = 0.5766 | 1260.34 | 1444.2 | 31.76
313.15 K, x2 = 0.6793 | 1287.33 | 1432.3 | 42.71
313.15 K, x2 = 0.7871 | 1312.75 | 1422.2 | 57.32
313.15 K, x2 = 0.9009 | 1336.1 | 1411.9 | 83.73
318.15 K, x2 = 0 | 966.24 | 1492.8 | 1.27
318.15 K, x2 = 0.1076 | 1048.13 | 1491.1 | 2.5
318.15 K, x2 = 0.2146 | 1112.61 | 1488.2 | 5
318.15 K, x2 = 0.3053 | 1158.36 | 1479.8 | 7.84
318.15 K, x2 = 0.3985 | 1198.4 | 1462.1 | 12.02
318.15 K, x2 = 0.4805 | 1227.29 | 1445.1 | 17.73
318.15 K, x2 = 0.5766 | 1256.33 | 1431.8 | 25.05
318.15 K, x2 = 0.6793 | 1283.28 | 1420.3 | 34.26
318.15 K, x2 = 0.7871 | 1308.65 | 1410.4 | 46.02
318.15 K, x2 = 0.9009 | 1331.99 | 1400.5 | 66.23
323.15 K, x2 = 0 | 962.13 | 1476.2 | 1.16
323.15 K, x2 = 0.1076 | 1044.13 | 1473.9 | 2.07
323.15 K, x2 = 0.2146 | 1108.64 | 1471.7 | 4.02
323.15 K, x2 = 0.3053 | 1154.38 | 1466.1 | 6.32
323.15 K, x2 = 0.3985 | 1194.44 | 1448.8 | 9.48
323.15 K, x2 = 0.4805 | 1223.3 | 1432.3 | 13.62
323.15 K, x2 = 0.5766 | 1252.31 | 1419.6 | 19.75
323.15 K, x2 = 0.6793 | 1279.23 | 1408.4 | 27.82
323.15 K, x2 = 0.7871 | 1304.56 | 1398.9 | 37.45
323.15 K, x2 = 0.9009 | 1327.88 | 1389.2 | 53.14
